# In patent publication US11559500B2, “Compositions and formulations for treatment of malignancies” (Neugate Pharma, LLC, priority 2017, dated 2023):
# System: malignant primary or metastatic tumors involving the CNS
# Assay: Clinical and radiological tumor response (Macdonald criteria), immune modulating regimen in addition to standard chemoradiotherapy
# Assay type: in vivo, human
# Settings: CNS melanoma subject, ipilimumab with radiotherapy, before the regimen
# Protocol: Subjects used in the larger study were diagnosed with different primary or metastatic tumors involving the central nervous system: glioblastoma, carcinoma, or lymphoma. The oral immunomodulation regimen was offered to subjects in addition to standard therapy.
# Samples were collected at scheduled clinic visits. […] Radiology studies were performed as part of standard evaluation.
substance,measurement,value
ipilimumab,Disease course on prior therapy,progressed
